Laboratory results published in article PMC3075623 (2011).

Target: T1, ABL2 (ABL-related gene, ARG) (Homo sapiens, UniProt P42684)
T1 sequence (P42684 279-546): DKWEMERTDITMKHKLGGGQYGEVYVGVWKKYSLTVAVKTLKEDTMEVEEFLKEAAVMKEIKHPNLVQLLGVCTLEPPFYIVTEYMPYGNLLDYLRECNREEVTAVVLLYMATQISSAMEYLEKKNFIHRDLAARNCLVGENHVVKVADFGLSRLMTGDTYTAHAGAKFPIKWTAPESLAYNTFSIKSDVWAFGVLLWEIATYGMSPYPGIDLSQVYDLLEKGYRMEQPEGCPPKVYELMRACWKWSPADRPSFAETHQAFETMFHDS
Test: cocrystal structure
Format: binding

`Nc1nc(Nc2ccc(S(N)(=O)=O)cc2)nn1C(=S)Nc1c(F)cccc1F` [compound 2, 5-amino-3-((4-(aminosulfonyl)phenyl)amino)-N-(2,6-difluorophenyl)-1H-1,2,4-triazole-1-carbothioamide] was tested. Which cocrystal structure did it give?
The cocrystal structure was “The ligand is bound to the protein by hydrogen bonds to the backbone carbonyls of residues Glu362 and Met364”.
